Here are results for 13 molecules from US7812178B2, “Isoquinoline compound and pharmaceutical use thereof” (Mitsubishi Tanabe Pharma Corporation, priority 2002, dated 2010).

The target in one data set is T1, recombinant human PARP (Homo sapiens, UniProt P09874).
T1 construct: purchased Trevigen 4667-02X
Kind of data set: PARP enzyme activity inhibitory action (3H-NAD poly ADP-ribosylation, filter assay). Format: biochemical. The following applies: 25° C., 15 min. The protocol: After incubation at 25° C. for 15 min., the reaction was stopped with 20% trichloroacetic acid, and the resulting acid insoluble fraction was adsorbed to a GF/B filter. The filter was washed several times with 5% trichloroacetic acid, and the radiation dose on the filter was measured with a liquid scintillation counter.

Data set [1] in a line: Determination of stability in physiological saline at room temperature (residual ratio by HPLC). Format: physicochemical. The settings on record: for Residual rate (%) under non-shielding 7 days later / Residual rate (%) under shielding 7 days later: day 7; for Residual rate (%) under non-shielding 11 days later / Residual rate (%) under shielding 11 days later: day 11. Here is the method:
Each compound was dissolved in physiological saline to give solutions having a concentration of 1.0 mg/mL or 10 mg/mL. They were preserved at room temperature, under shielding or non-shielding and the residual ratio at day 7 and day 11 was measured by HPLC. […]
column: Inertsil ODS3V (GL Science Inc.)
Mobile phase: methanol: 0.01 mol/L aqueous ammonium acetate solution detection wavelength: 254 nm

Setting [2] is: 1.0 mg/mL in physiological saline.
The mark [3] stands for this setting: 10 mg/mL in physiological saline.

Usually IC50 stands for the concentration that inhibits the measured activity by half. By melting point is commonly meant the temperature of the solid-liquid transition.

T1 sequence (P09874 whole entry): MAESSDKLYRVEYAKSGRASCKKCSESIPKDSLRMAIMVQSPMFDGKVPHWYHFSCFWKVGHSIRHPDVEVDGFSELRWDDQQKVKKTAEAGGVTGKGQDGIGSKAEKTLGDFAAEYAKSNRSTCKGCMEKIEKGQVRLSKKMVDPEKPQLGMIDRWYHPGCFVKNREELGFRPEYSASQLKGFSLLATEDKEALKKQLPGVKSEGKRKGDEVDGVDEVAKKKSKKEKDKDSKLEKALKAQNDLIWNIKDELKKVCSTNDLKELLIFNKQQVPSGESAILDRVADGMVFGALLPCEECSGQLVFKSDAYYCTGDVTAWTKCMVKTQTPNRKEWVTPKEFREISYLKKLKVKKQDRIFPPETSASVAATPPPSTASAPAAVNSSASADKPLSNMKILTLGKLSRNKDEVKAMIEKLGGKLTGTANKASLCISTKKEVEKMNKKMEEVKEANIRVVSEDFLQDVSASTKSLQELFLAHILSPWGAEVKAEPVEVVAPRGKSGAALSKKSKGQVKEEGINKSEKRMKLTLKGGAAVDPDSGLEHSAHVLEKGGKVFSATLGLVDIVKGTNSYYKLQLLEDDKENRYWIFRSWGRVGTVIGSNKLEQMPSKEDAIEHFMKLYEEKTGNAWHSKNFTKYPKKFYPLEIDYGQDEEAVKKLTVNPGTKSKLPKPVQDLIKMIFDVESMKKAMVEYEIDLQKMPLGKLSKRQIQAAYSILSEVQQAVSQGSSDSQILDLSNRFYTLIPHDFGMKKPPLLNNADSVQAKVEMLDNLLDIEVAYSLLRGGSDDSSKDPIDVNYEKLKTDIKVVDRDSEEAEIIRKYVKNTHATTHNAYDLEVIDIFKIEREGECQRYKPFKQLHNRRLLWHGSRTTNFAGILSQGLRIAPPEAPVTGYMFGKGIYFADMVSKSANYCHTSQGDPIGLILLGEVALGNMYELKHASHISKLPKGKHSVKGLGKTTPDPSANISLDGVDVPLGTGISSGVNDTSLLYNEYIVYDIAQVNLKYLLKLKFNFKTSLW

In turn, `Cc1cccc2c(=O)[nH]c(C3CCN(CCO)C3)cc12` (single isomer, unassigned; (+)) [Ex. 38a, (+)-3-[1-(2-hydroxylethyl)pyrrolidin-3-yl]-5-methyl-2H-isoquinolin-1-one] registered a melting point of 137 to 138.6 °C. Besides, the IC50 at recombinant human PARP was determined as 29 nM.
As for `Cc1cccc2c(=O)[nH]c(C3CCN(CCO)C3)cc12` (single isomer, unassigned; (-)) [Ex. 37a, (−)-3-[1-(2-hydroxylethyl)pyrrolidin-3-yl]-5-methyl-2H-isoquinolin-1-one], the melting point was 137.3 to 138.6 °C. Also, the IC50 on recombinant human PARP turned out to be 20 nM.
For `Cc1cccc2c(=O)[nH]c(CCN3CC[C@@H](O)C3)cc12` [Ex. 1a, (R)-3-[2-(3-hydroxypyrrolidin-1-yl)ethyl]-5-methyl-2H-isoquinolin-1-one], on recombinant human PARP, the IC50 was found to be 39 nM. In data set [1] (setting [2]), the “Residual rate (%) under non-shielding 7 days later” value was “≈100%”, the “Residual rate (%) under non-shielding 11 days later” value is listed as “≈100%”, the “Residual rate (%) under shielding 7 days later” value is given as “≈100%” and the “Residual rate (%) under shielding 11 days later” value is on record as “≈100%”. Besides, in data set [1] (setting [3]), the “Residual rate (%) under non-shielding 7 days later” value is listed as “≈100%”, the “Residual rate (%) under non-shielding 11 days later” value is listed as “≈100%”, the “Residual rate (%) under shielding 7 days later” value was “≈100%” and the “Residual rate (%) under shielding 11 days later” value is recorded as “≈100%”.
As to `Cc1cccc2c(=O)[nH]c(C3CCN(CCO)CC3)cc12` [Ex. 2a, 3-[1-(2-hydroxyethyl)piperidin-4-yl]-5-methyl-2H-isoquinolin-1-one], on recombinant human PARP, the IC50 is 17 nM. Moreover, in data set [1] (setting [2]), the “Residual rate (%) under non-shielding 7 days later” value was “≈100%”, the “Residual rate (%) under non-shielding 11 days later” value was “≈100%”, the “Residual rate (%) under shielding 7 days later” value was “≈100%” and the “Residual rate (%) under shielding 11 days later” value is listed as “≈100%”. Further, in data set [1] (setting [3]), the “Residual rate (%) under non-shielding 7 days later” value is on record as “≈100%”, the “Residual rate (%) under non-shielding 11 days later” value is “≈100%”, the “Residual rate (%) under shielding 7 days later” value was “≈100%” and the “Residual rate (%) under shielding 11 days later” value is “≈100%”.
For the molecule `Cc1cccc2c(=O)[nH]c(CCCN3CCC(O)C3)cc12` (stereo not shown) [Ex. 4a, 3-[3-(3-hydroxypyrrolidin-1-yl)propyl]-5-methyl-2H-isoquinolin-1-one], on recombinant human PARP, the IC50 is 46 nM.
With `Cc1cccc2c(=O)[nH]c(CCN3CCC(O)C3)cc12` (stereo not shown) [Ex. 5a, 3-[2-(3-hydroxypyrrolidin-1-yl)ethyl]-5-methyl-2H-isoquinolin-1-one], the IC50 on recombinant human PARP stood at 50 nM.
On the same count and under the same terms, as for `O=c1[nH]c(C2CCN(CCO)CC2)cc2ccccc12` [Ex. 9a, 3-[1-(2-hydroxyethyl)piperidin-4-yl]-2H-isoquinolin-1-one], the figure is 44 nM; as for `Cc1cccc2c(=O)[nH]c(C3CCN(CCO)C3)cc12` (stereo not shown) [Ex. 28a, 3-[1-(2-hydroxyethyl)pyrrolidin-3-yl]-5-methyl-2H-isoquinolin-1-one], 35 nM.
In turn, `Cc1cccc2c(=O)[nH]c(CCN3CC[C@H](O)C3)cc12` [Ex. 34a, (S)-3-[2-(3-hydroxypyrrolidin-1-yl)ethyl]-5-methyl-2H-isoquinolin-1-one] yielded a melting point of 176 to 178 °C. Besides, the IC50 on recombinant human PARP was found to be 34 nM.
Regarding `Cc1cccc2c(=O)[nH]c(CCN3CCC[C@@H]3CO)cc12` [Ex. 36a, (R)-3-[2-(2-hydroxymethylpyrrolidin-1-yl)ethyl]-5-methyl-2H-isoquinolin-1-one], the IC50 at recombinant human PARP is 29 nM. For the same molecule, in data set [1] (setting [2]), the “Residual rate (%) under non-shielding 7 days later” value is given as “≈100%”, the “Residual rate (%) under non-shielding 11 days later” value was “≈100%”, the “Residual rate (%) under shielding 7 days later” value is “≈100%” and the “Residual rate (%) under shielding 11 days later” value is listed as “≈100%”. For the same molecule, in data set [1] (setting [3]), the “Residual rate (%) under non-shielding 7 days later” value is given as “≈100%”, the “Residual rate (%) under non-shielding 11 days later” value is given as “≈100%”, the “Residual rate (%) under shielding 7 days later” value is listed as “≈100%” and the “Residual rate (%) under shielding 11 days later” value is “≈100%”.
`Cc1cccc2c(=O)[nH]c(C3CCN(CCCO)CC3)cc12` [Example 23a, 5-methyl-3-[1-(3-hydroxypropyl)piperidin-4-yl]-2H-isoquinolin-1-one] came in with a melting point of 197 to 199 °C.
Still for that read-out and setting: as for `Cc1cccc2c(=O)[nH]c(CCN3CCCC(O)C3)cc12` (stereo not shown) [Example 32a, 3-[2-(3-hydroxypiperidin-1-yl)ethyl]-5-methyl-2H-isoquinolin-1-one], the figure is 184 to 185 °C; as for `Cc1cccc2c(=O)[nH]c(CCN3CCC[C@@H](O)C3)cc12` [Example 35a, (R)-3-[2-(3-hydroxypiperidin-1-yl)ethyl]-5-methyl-2H-isoquinolin-1-one], 180 to 181 °C.
